Results published in patent publication US10188650B2, “Treatment of neurological disorders” (THE REGENTS OF THE UNIVERSITY OF MICHIGAN, priority 2014, dated 2019).
Entries after “also recorded” stand apart in the source; their conditions may differ.

Columns and labels:
P-glycoprotein = P-glycoprotein (Homo sapiens, UniProt P08183); details: cited from earlier work
[1] = pediatric patient studies; cited from earlier work
Drosophila Abl = molecular target: T1, Drosophila Abl (Drosophila melanogaster, UniProt P00522); assay: Abl activity in Schneider 2 cells expressing Drosophila Abl, western blot with anti-phospho-Y412-Abl antibody; assay type: cell-based; details: nilotinib 5 μM, 6 hours, S2 cells expressing Drosophila Abl
T1 construct: the full-length cDNA of Drosophila Abl was obtained by ligating two fragments; Myc; expressed in transfected cells; host or cells: Drosophila Schneider 2 (S2) cells
T1 sequence (P00522 whole entry, the tested form may be a part): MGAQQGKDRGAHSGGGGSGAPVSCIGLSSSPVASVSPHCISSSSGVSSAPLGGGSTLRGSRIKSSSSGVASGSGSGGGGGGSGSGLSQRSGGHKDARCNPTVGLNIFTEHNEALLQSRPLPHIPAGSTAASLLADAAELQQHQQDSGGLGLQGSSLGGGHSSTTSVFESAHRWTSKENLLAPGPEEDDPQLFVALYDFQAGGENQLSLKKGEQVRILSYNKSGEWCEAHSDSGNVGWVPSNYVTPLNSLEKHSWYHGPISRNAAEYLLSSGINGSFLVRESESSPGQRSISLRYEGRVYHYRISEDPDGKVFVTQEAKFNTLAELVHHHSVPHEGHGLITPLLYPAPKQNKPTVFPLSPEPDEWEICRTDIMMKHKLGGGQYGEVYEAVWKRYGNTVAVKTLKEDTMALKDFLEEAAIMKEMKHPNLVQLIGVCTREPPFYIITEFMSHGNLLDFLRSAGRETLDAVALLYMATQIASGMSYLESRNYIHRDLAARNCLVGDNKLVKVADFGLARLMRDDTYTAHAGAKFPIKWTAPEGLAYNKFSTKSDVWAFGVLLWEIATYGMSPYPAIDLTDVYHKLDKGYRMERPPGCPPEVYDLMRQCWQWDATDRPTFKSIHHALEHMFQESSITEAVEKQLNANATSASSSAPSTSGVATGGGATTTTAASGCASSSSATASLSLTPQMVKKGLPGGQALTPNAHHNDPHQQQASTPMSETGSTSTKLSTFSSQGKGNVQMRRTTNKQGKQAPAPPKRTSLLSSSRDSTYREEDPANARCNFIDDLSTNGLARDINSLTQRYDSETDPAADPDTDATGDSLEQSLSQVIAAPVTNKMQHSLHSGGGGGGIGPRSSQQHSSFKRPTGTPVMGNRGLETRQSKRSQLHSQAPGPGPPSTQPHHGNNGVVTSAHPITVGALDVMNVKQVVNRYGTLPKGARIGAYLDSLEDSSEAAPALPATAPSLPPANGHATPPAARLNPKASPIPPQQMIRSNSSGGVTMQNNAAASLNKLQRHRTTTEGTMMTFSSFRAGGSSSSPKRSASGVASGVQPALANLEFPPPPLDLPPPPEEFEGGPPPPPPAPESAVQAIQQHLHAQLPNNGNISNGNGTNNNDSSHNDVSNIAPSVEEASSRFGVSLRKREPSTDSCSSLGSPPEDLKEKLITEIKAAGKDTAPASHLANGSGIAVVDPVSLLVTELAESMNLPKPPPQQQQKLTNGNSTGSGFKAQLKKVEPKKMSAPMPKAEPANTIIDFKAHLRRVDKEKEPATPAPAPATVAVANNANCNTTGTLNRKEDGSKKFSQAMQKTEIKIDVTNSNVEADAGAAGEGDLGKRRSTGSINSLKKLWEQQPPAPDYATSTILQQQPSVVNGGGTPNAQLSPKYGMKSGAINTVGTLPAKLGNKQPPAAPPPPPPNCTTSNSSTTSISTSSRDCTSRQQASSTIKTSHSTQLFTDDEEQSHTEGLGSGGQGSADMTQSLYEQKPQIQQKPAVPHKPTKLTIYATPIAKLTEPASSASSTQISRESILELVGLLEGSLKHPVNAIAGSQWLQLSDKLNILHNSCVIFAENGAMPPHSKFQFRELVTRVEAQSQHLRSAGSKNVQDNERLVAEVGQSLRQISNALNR
Procedure: Abl activity was assessed by western blotting analysis with an anti-phospho-Y412-Abl antibody.
Drosophila Schneider 2 cells were maintained in Drosophila Schneider's medium (Life Technologies) supplemented with 10% fetal bovine serum (Sigma-Aldrich, St. Louis, Mo.) in a humidified atmosphere at 26° C. Cells grown on tissue culture plates were transfected with Lipofectamine 2000 (Life Technologies) according to manufacturer's recommendation. Cells were harvested two days after transfection, lysed in SDS sample buffer, and subjected to western blot analysis. In some experiments, cells were transfected with indicated DNA constructs together with tubulin-Gal4 (Lee and Luo, 2001) by using Lipofectamine 2000 (Invitrogen) according to manufacturer's protocol.
Western blot analysis was performed as follows.
(§1) Sample preparation, imaging, and quantification were then completed as described above.
During the development of embodiments of the technology provided herein, experiments were performed to assess the effects of Abl kinase inhibitors on Dscam-induced axonal overgrowth. […] Abl activity was assessed by western blotting analysis with an anti-phospho-Y412-Abl antibody.

[2] = system: C4da neurons overexpressing Dscam; assay: Axon terminal overgrowth induced by Dscam overexpression in single C4da neurons (MARCM), larvae fed drug; assay type: in vivo, Drosophila; details: larvae reared in food containing 380 μM nilotinib (figure legend: 0.4 mM), 4 days
Text: The genetic technique MARCM was used to express the Dscam transgene in single C4da neurons and to label the morphology of the axon terminals.
The MARCM technique was used to generate and label C4da neurons homozygous for abl^1 or abl^4 mutations and C4da neurons overexpressing Dscam[TM2]:GFP.
Antibodies used include chicken anti-GFP (Ayes) and rabbit anti-RFP (Rockland). Samples were dehydrated and mounted with DPX mounting media (Electron Microscopy Sciences). Confocal imaging was completed with a Leica SP5 confocal system equipped with a resonant scanner and 63× oil-immersion lens (NA=1.40).
as §1
In particular, the genetic mosaic analysis MARCM was used to express the Dscam transgene in single C4da neurons and to label the morphology of the axon terminals. […] Expression of Dscam transgene was achieved by the C4da-specific driver ppk-Gal4 and UAS-Dscam::GFP transgenes. […] Dscam expression levels (GFP intensity) were measured from the C4da neuron cell body.

[3] = system: dFMRP mutant C4da neurons; assay: Axon terminal overgrowth in dFMRP mutants (Fragile X Syndrome model), larvae fed drug; assay type: in vivo, Drosophila; details: larvae raised with nilotinib 4 days; vehicle-fed mutants 130%
Text: The MARCM technique was used to generate and visualize single axon terminals of mutant C4da neurons. […] FIG. 10c summarizes the data from FIG. 6, FIG. 10A and FIG. 10B relating to quantification of the axon terminal length of the indicated genotype and drug treatment. […] Scale bar is 10 μm. Two-way Student's t-test was used for statistical analysis. *: p<0.05; **: p<0.01; ***: p<0.001; ****; p<0.0001.
The MARCM technique was used to generate and label C4da neurons homozygous for abl^1 or abl^4 mutations and C4da neurons overexpressing Dscam[TM2]:GFP. MARCM clones were induced as previously described in Ye et al. (2011) Journal of Neuroscience 31: 3309-3319. Confocal images were collected and analyzed as described in Kim et al. (2013) Neuron 78: 827-838. The MARCM technique was used to visualize single neurons homozygous for abl^1, abl^4, or dFMRP^Δ50 and overexpressing Dscam[3.36.25.2]:GFP as previously described (Kim, et al., 2013).
as §1
Fragile X Syndrome (FXS) is caused by an absence of Fragile X mental retardation protein (FMRP) (Kremer, et al. (1991) Science 252: 1711-14), and is modeled in Drosophila using loss-of-function mutants for the Drosophila homolog of […], dFMRP (Zhang, et al. (2001) Cell 107:591-603; Dockendorff, et al. (2002) Neuron 34: 973-84).

Human pharmacokinetics = assay type: in vivo; details: estimated
[4] = human, oral capsule; cited from earlier work
OCT1 = molecular target: T2, OCT1 (Homo sapiens, UniProt O15245); details: entry into cell cytoplasm; cited from earlier work
T2 sequence (O15245 1-554): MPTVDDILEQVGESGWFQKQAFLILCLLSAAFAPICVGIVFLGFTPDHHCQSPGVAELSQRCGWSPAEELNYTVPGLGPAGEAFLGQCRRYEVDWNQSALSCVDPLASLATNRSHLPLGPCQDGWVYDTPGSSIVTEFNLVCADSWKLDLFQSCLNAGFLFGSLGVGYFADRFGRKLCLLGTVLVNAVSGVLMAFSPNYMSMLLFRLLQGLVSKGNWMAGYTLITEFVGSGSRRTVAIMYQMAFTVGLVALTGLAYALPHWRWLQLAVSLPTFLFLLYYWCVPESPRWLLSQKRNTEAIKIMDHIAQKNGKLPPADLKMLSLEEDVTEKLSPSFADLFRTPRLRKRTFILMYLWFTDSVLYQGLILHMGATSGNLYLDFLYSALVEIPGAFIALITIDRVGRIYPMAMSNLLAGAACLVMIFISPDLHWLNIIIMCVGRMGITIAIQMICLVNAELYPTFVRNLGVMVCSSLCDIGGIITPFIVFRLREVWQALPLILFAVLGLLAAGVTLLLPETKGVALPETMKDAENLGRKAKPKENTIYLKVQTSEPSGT

Sequence of P-glycoprotein (P08183 whole entry): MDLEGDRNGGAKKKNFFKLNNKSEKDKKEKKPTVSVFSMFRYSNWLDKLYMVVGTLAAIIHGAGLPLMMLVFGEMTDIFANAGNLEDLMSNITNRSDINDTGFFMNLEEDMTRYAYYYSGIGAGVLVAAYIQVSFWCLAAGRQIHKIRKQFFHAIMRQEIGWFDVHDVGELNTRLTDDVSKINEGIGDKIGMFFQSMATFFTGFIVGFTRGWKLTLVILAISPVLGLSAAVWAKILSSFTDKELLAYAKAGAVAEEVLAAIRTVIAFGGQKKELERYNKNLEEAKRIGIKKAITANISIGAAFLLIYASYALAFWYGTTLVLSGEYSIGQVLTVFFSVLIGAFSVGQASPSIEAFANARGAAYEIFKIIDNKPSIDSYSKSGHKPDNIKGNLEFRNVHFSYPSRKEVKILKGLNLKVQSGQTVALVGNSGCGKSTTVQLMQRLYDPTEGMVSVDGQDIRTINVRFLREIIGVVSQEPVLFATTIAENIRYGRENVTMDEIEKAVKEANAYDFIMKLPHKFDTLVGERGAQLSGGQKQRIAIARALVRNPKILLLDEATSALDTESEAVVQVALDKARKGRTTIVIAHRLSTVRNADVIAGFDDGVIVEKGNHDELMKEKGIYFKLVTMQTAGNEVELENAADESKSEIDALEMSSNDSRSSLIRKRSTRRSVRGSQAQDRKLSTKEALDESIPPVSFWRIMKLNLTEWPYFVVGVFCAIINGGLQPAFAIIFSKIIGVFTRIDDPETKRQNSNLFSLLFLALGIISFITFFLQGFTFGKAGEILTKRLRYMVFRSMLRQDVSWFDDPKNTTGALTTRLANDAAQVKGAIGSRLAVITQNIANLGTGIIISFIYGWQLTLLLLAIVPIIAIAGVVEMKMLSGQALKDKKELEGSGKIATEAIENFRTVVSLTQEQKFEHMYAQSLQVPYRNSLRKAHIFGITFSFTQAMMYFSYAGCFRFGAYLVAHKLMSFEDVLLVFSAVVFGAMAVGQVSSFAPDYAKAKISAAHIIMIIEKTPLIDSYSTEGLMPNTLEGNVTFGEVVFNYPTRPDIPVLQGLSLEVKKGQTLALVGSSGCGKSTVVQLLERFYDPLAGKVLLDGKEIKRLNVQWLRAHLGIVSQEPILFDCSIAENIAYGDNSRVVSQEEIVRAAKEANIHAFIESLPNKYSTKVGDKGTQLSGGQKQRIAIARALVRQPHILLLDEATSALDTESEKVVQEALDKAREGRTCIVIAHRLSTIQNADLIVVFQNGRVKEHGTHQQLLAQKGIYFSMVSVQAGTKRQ

Cc1nc(Nc2ncc(C(=O)Nc3c(C)cccc3Cl)s2)cc(N2CCN(CCO)CC2)n1 [Dasatinib]
substrate for the efflux transporter P-glycoprotein pump (P-glycoprotein): not a substrate
tolerance in children [1]: good tolerance

Cc1ccc(NC(=O)c2ccc(CN3CCN(C)CC3)cc2)cc1Nc1nccc(-c2cccnc2)n1 [imatinib]
substrate for the efflux transporter P-glycoprotein pump (P-glycoprotein): substrate

Cc1cn(-c2cc(NC(=O)c3ccc(C)c(Nc4nccc(-c5cccnc5)n4)c3)cc(C(F)(F)F)c2)cn1 [nilotinib, 4-methyl-N-[3-(4-methyl-1-H-imidazol-1-yl)-5-(trifluoromethyl)phenyl]-3-[(4-pyridin-3-ylpyrimidin-2-yl)amino]benzamide]
Abl activity (phospho-Y412-Abl) (Drosophila Abl): completely suppressed
Dscam-induced axon terminal overgrowth [2]: nearly completely suppressed; also recorded: suppresses axon terminal overgrowth
axon terminal length in dFMRP mutants [3]: 103 % of control
concentration in a human (Human pharmacokinetics): approximately 1.3 μmol/liter
substrate for the efflux transporter P-glycoprotein pump (P-glycoprotein): not a substrate
bioavailability [4]: approximately 30%
influx dependent on OCT1 (OCT1): is not
